Columns and labels:
Format in all cases: cell-based
[1] = tested on: DNA-PK substrates (DNA-PKcs Thr2609, Histone H2AX Ser139) in PEO1 cells; experiment: Immunoblotting for phosphorylation of DNA-PK substrates; conditions: 72 hours, with 20 μM ABT-888, 500 nM DNA-PKi or 5 μM ATMi
Protocol: FIG. 2. DNA-PK is activated following PARP inhibitor exposure in PEO1 cells. (A) Western blots for poly(ADP-ribose) polymer (pADPr) and phosphorylation of DNA-PK substrates (DNA-PKcs autophosphorylation at Thr^2609 and Histone H2AX at Ser^139) in PEO1 cells following 72 hours exposure to increasing concentrations of ABT-888 (0, 0.625, 1.25, 2.5, 5, 10, 20, and 40 μM). Hsp90, total DNA-PKcs, and Histone H1 are used as loading controls. (B) Phosphorylation of DNA-PK substrates after treatment for 72 hours with diluent (0.2% DMSO, lanes 1 and 4), 500 nM DNA-PK inhibitor AZ12594248 (DNA-PKi, lanes 2 and 5), or 5 μM ATM inhibitor KU55933 (ATMi, lanes 3 and 6) alone (lanes 1-3) or in combination with 20 μM ABT-888 (lanes 4-6). (C) Quantitation of cells positive for phospho-H2AX foci in PEO1 and PEO4 cells, following treatment with DMSO, 500 nM DNA-PKi, 20 μM ABT-888 (ABT), ABT-888 and DNA-PKi, 50 μM Etoposide (Etop), or 5 Gy ionizing radiation (IR). Cells were exposed to ABT-888 and/or DNA-PKi for 72 hours, etoposide for 1 hour, or allowed to recover for 1 hour after IR. Results are reported as mean±SEM of 3 independent experiments. (D) Confocal images of PEO1 cells treated as in […]. Phospho-Ser^139-H2AX is shown in green, phospho-Thr^2609-DNA-PKcs in red, and Hoechst 33258 in blue.
Cells were washed twice with calcium- and magnesium-free Dulbecco's phosphate-buffered saline (PBS) and solubilized in 6 M guanidine hydrochloride containing 250 mM Tris-HCl, pH 8.5 at 20° C., 10 mM EDTA, 1% (v/v) 2-mercaptoethanol, and 1 mM freshly added phenylmethylsulfonyl fluoride. After preparation for electrophoresis as described elsewhere (Kaufmann et al., Blood, 89:2098-2104 (1997)), aliquots containing 50 μg of protein (determined by the bicinchoninic acid method—S10) were separated on SDS-polyacrylamide gels containing 8% (w/v) acrylamide, electrophoretically transferred to nitrocellulose, and probed with immunological reagents as described elsewhere (Kaufmann, Anal. Biochem., 296:283-286 (2001)). […]

[2] = tested on: BRCA2-deficient PEO1 cells; experiment: Clonogenic assay, PEO1
Protocol: (§1) FIG. 5. NHEJ is a major contributor to PARP inhibitor effects in BRCA2-deficient cells. (A) Western blots showing knockdown of Ku80 in PEO1 and PEO4 cells. (B) Clonogenic survival of PEO1 and PEO4 cells from (A), which were treated with the indicated ABT-888 concentration for 72 hours, washed, and allowed to form colonies. (C) Western blots following treatment with siRNA targeting luciferase (control), Ku80, PARP1, or both Ku80 and PARP1. (D) Clonogenic viability of PEO 1 and PEO4 cells from (C). Following knockdown, cells were plated onto triplicate plates and allowed to form colonies. (E) Clonogenic survival of PEO1 cells following Artemis knockdown. After treatment with the indicated siRNA, plates were treated with indicated concentration of ABT-888 for 72 hours, washed, and allowed to form colonies. Inset, Western blots showing knockdown using luciferase (control) or Artemis siRNAs in PEO1 cells. (F) Clonogenic survival of PEO1 and PEO4 cells treated for 72 hours with ABT-888 in combination with diluent or 500 nM DNA-PKi. All results are reported as means of triplicate plates±SEM, and are representative of 3 independent experiments.
FIG. 13. DNA-PK inhibition diminishes the lethality of multiple PARP inhibitors in PEO1 cells. (A) Representative clonogenic plates after PEO1 cells were treated with ABT-888 (0, 5, or 20 μM) with or without 500 nM DNA-PKi. (B, C) Bar graphs comparing clonogenic survival of PEO1 cells exposed to two PARP inhibitors with or without 500 nM DNA-PKi. The PARP inhibitors used for these assays are ABT-888 (B) and AZD2281/olaparib (C). Results are reported as mean±SEM of triplicate plates.
FIG. 18. Artemis knockdown confers resistance to PARP inhibition and cisplatin in BRCA2-deficient/mutant cells. Clonogenic survival assays of PEO1 shRNA lines continuously exposed to ABT-888 (A) or cisplatin (B), or exposed to ionizing radiation (C). (D-F) Clonogenic survival assays of CAPAN1 shRNA lines exposed to ABT-888 (D), cisplatin (E), or exposed to ionizing radiation (F).
(§2) Colony formation assays were performed on siRNA-transfected PEO1 and PEO4 cells 48 hours after the second transfection. Cells were trypsinized and plated at 750 cells/plate in triplicate 60-mm dishes containing medium A, allowed to grow 10-14 days, and stained with Coomassie Brilliant Blue. Colonies containing ≧50 cells were scored manually. To assess methyl methanesulfonate (MMS) sensitivity, PEO1 or PEO4 cells were incubated for 48 hours after the second siRNA treatment, plated onto 60-mm dishes, allowed to adhere for 4 hours, exposed to the indicated concentration of MMS (Sigma-Aldrich) for 1 hour, washed with sterile RPMI 1640, and allowed to grow into colonies in medium A. For drug treatment, cells (without siRNA) were allowed to adhere for 4-6 hours, then treated with the indicated concentrations of ABT-888 and/or AZ12594248 for 72 hours. Following drug treatment, cells were washed with drug-free RPMI 1640, cultured for 10-14 days in medium A, and stained. For HCC1937 and HCC1937/BRCA1 cells, a similar procedure was used with several changes: 1000 cells were plated in medium B, and treatment was continuous for 16-20 days. M059J and M059J+DNA-PKcs were plated at 1000 cells per plate in medium C and treated for 48 hours. GM16666 and 16667 were plated at 1000 cells per plate in medium D and treated for 48 hours.

[3] = tested on: BRCA2-positive PEO4 cells; experiment: Clonogenic assay, PEO4; conditions: XRCC1 siRNA, 1 hour exposure
Protocol: as §1
as §2, with “Following drug treatment, cells were washed with drug-free RPMI 1640, cultured for 10-14 days in medium A, and stained. For HCC1937 and HCC1937/BRCA1 cells, a similar procedure was used with several changes: 1000 cells were plated in medium B, and treatment was continuous for 16-20 days. M059J and M059J+DNA-PKcs were plated at 1000 cells per plate in medium C and treated for 48 hours. GM16666 and 16667 were plated at 1000 cells per plate in medium D and treated for 48 hours.” left out

O=c1cc(-c2cccc3c2Sc2ccccc2S3)oc(N2CCOCC2)c1 [KU55933]
effect on ABT-888-induced phosphorylation of DNA-PKcs and H2AX [1]: did not

N.N.[Cl][Pt][Cl] [cisplatin]
clonogenic sensitivity after stable Artemis knockdown ([2]; PEO1 shRNA lines, continuous exposure): conferred resistance

COS(C)(=O)=O [methane methylsulfonate, methyl methanesulfonate]
clonogenic sensitivity after XRCC1 knockdown ([2]; PEO1 cells, XRCC1 siRNA, 1 hour exposure): sensitized
clonogenic sensitivity after XRCC1 knockdown [3]: sensitized

Reference: patent US8729048B2, “Methods and materials for assessing responsiveness to PARP inhibitors and platinating agents” (Mayo Foundation for Medical Education and Research, priority 2011, dated 2014)
